One data set concerns HeLa cells. Kind of data set: SRB assay, HeLa cells. Format: cell-based. The note with it: for IC50: Homo sapiens, HeLa, 72 h after treatment, SRB, read-out: IC50 HeLa; for Viability of HeLa cells: % of control, concentrations 1 × 10^−6 to 1 × 10^−4 M (not assigned to the values for 2a). How it is done:
(§1) All cell lines were cultured in Dulbecco’s Modified Eagle’s Medium (DMEM) with 4500 mg/L glucose and L-glutamine (Capricorn Scientific, Ebsdorfergrund, Germany), supplemented with 10% foetal bovine serum (PAN-Biotech, Aidenbach, Germany), 10,000 U/mL penicillin, and 10 mg/mL streptomycin solution (Capricorn Scientific) under standard conditions at 37 °C in a humidified 5% CO2 atmosphere (ESCO, Lifesciences Group, Singapore).
Cells were seeded on a 96-well plate (Thermo Fisher Scientific, Waltham, MA, USA) at 2 × 10^3 cells per well in DMEM medium. For the analysis of the concentration- and time-dependent effect of the analysed compounds, cell monolayers were treated 24 h after seeding with concentrations 1 × 10^−6, 1 × 10^−5, and 1 × 10^−4 M for 24, 48, or 72 h. Cell viability was detected using sulforhodamine B (SRB) assay, based on the staining of cellular proteins. The assay was performed according to the procedure described by Skehan et al.. The cells were fixed with 10% trichloroacetic acid (TCA, CARLO ERBA Reagents GmbH, Emmendingen, Germany) for 1 h at 4 °C, washed with water, and stained for 15 min with 0.4% SRB (Sigma-Aldrich Chemie GmbH, Steinheim, Germany) in 1% acetic acid. The unbound SRB dye was rinsed with 1% acetic acid, while the protein-bound dye was extracted with a 10 mM Tris base (Sigma-Aldrich). […] The results were expressed as a percentage of the control, where the cell growth of the control is set to 100%. […] The selectivity index (SI) was determined according to the following formula:(2) SI=IC50 for fibroblast cell line/IC50 for tumour cell line
(§2) The assay was performed two times in 4 replicates for every experimental group. The statistical significance of differences between treated and untreated cells was estimated by the independent Student’s t-test, with the level of significance set at p < 0.05.
In general terms: In SRB staining, fixed cells bind dye roughly in proportion to their protein.

Another data set deals with MDA-MB-468 cells. The data set is described as follows: SRB assay, MDA-MB-468 cells. The class given is cell-based, human. The following applies: for IC50: Homo sapiens, MDA-MB-468, 72 h after treatment, SRB, read-out: IC50 MDA-468. How it is done:
as §1, with “Two human breast cancer cell lines, MDA-MB-231 (HTB-26) and MDA-MB-468 (HTB-132), human cervical cancer cell line HeLa (CCL-2), and MRC-5 (CCL-171) fibroblasts were purchased from the American Type Culture Collection (ATCC, Manassas, VA, USA). All” for “All”
Cells were seeded on a 96-well plate (Thermo Fisher Scientific, Waltham, MA, USA) at 2 × 10^3 cells per well in DMEM medium. For the analysis of the concentration- and time-dependent effect of the analysed compounds, cell monolayers were treated 24 h after seeding with concentrations 1 × 10^−6, 1 × 10^−5, and 1 × 10^−4 M for 24, 48, or 72 h. Cell viability was detected using sulforhodamine B (SRB) assay, based on the staining of cellular proteins. The assay was performed according to the procedure described by Skehan et al.. The cells were fixed with 10% trichloroacetic acid (TCA, CARLO ERBA Reagents GmbH, Emmendingen, Germany) for 1 h at 4 °C, washed with water, and stained for 15 min with 0.4% SRB (Sigma-Aldrich Chemie GmbH, Steinheim, Germany) in 1% acetic acid. The unbound SRB dye was rinsed with 1% acetic acid, while the protein-bound dye was extracted with a 10 mM Tris base (Sigma-Aldrich). The absorbance was measured at 550 nm with a reference wavelength of 690 nm in a microplate reader (Wallac, VICTOR2 1420 Multilabel counter, PerkinElmer, Turku, Finland). The results were expressed as a percentage of the control, where the cell growth of the control is set to 100%. IC50, defined as the concentration that caused a 50% loss of cell growth, was calculated by non-linear regression analysis with the ED50plus v1.0 software. The selectivity index (SI) was determined according to the following formula:(2) SI=IC50 for fibroblast cell line/IC50 for tumour cell line
as §2

Data set [1] is described as follows: Metal-chelating assay, binding stoichiometry (molar ratio method), Fe2+. The class given is physicochemical. The note with it: ethanol, 30 min, compound 5 × 10^−5 M. Here is the method:
(§3) Binding stoichiometry was determined using the molar ratio method, with increasing concentrations of metal ions (from 0 to 1.5 × 10^−4 M) (Figures S1 and S2). Absorption spectra were collected 30 min after mixing. The change in absorption at the wavelength of maximum absorbance for the formed complex was plotted against the metal ion (M^2+ = Cu^2+, Zn^2+, and Fe^2+) to compound ratio (cM^2+/ccompound) and is presented in Figure 3. This graph allows the determination of the binding ratio between the newly synthesized compounds and metal ions. […] In contrast, the results for Fe^2+ indicate that only one Fe^2+ ion can bind to both compounds.
(§4) The metal-chelating ability of synthesized compounds in ethanol was assessed using UV/Vis spectrophotometer (Lambda 35, Perkin Elmer) recording spectra over a wavelength range of 230–600 nm in a 1 cm quartz cell. The mixture of compound at 5 × 10^−5 M of final concentration and metal ions at 1 × 10^−4 M of final concentration was incubated for 30 min at room temperature. The tested temperature was 25 °C. […]
(§5) The binding stoichiometry was assessed by adding increasing concentrations of metal ions (0–1.5 × 10^−4 M) to a fixed concentration of compound (5 × 10^−5 M) and incubating the mixture for 30 min at room temperature. The spectra were then measured as described above, and the ligand-to-metal chelation ratio in the complex was calculated.

For the next data set, the system named is MRC-5 cells. The data set is described as follows: SRB assay, MRC-5 cells. The class given is cell-based. The note with it: Homo sapiens, MRC5; 72 h after treatment, SRB; read-out: IC50 MRC. How it is done: as §1, with “Two human breast cancer cell lines, MDA-MB-231 (HTB-26) and MDA-MB-468 (HTB-132), human cervical cancer cell line HeLa (CCL-2), and MRC-5 (CCL-171) fibroblasts were purchased from the American Type Culture Collection (ATCC, Manassas, VA, USA). All” for “All”
Cells were seeded on a 96-well plate (Thermo Fisher Scientific, Waltham, MA, USA) at 2 × 10^3 cells per well in DMEM medium. For the analysis of the concentration- and time-dependent effect of the analysed compounds, cell monolayers were treated 24 h after seeding with concentrations 1 × 10^−6, 1 × 10^−5, and 1 × 10^−4 M for 24, 48, or 72 h. Cell viability was detected using sulforhodamine B (SRB) assay, based on the staining of cellular proteins. The assay was performed according to the procedure described by Skehan et al.. The cells were fixed with 10% trichloroacetic acid (TCA, CARLO ERBA Reagents GmbH, Emmendingen, Germany) for 1 h at 4 °C, washed with water, and stained for 15 min with 0.4% SRB (Sigma-Aldrich Chemie GmbH, Steinheim, Germany) in 1% acetic acid. The unbound SRB dye was rinsed with 1% acetic acid, while the protein-bound dye was extracted with a 10 mM Tris base (Sigma-Aldrich). The absorbance was measured at 550 nm with a reference wavelength of 690 nm in a microplate reader (Wallac, VICTOR2 1420 Multilabel counter, PerkinElmer, Turku, Finland). The results were expressed as a percentage of the control, where the cell growth of the control is set to 100%. […] The selectivity index (SI) was determined according to the following formula:(2) SI=IC50 for fibroblast cell line/IC50 for tumour cell line […]

Data set [2] in a line: Metal-chelating assay, binding stoichiometry (molar ratio method), Cu2+. Format: physicochemical. The following applies: ethanol, 30 min, compound 5 × 10^−5 M, one ion coordinates with two molecules. Here is the method: as §3, §4, §5
The next data set can be described thus: physchem. Format: physicochemical. The note with it: n-octanol/deionized water, shake flask, 25 °C, 1 × 10^−4 M, read-out: logP, experimentally obtained. How it is done:
To measure the lipophilicity (expressed as the partition coefficient) of the synthesized compounds and their constituents, using a “shake-flask” method, a two-phase system composed of n-octanol and deionized water was used. The stock solutions of the compounds were diluted with water to the concentration of 1 × 10^−4 M, and this solution was used for further investigation. […] The concentration of the compounds was calculated from their extinction coefficient at 260 nm that was previously determined.

Where “and” joins values, the source holds several entries; their conditions need not be identical. Equal entries are not always repeated.

As for `COc1cc2c(cc1OC)CN(Cc1c(O)cc(O)c3c(=O)c(O)c(-c4ccc(O)c(O)c4)oc13)CC2` [Compound 2b], the 50% inhibitory concentration (IC50) in the data set on HeLa cells came out at 19.5 ± 0.97 µM; in the data set on MDA-MB-468 cells it was 109 ± 5 µM; in the data set on MRC-5 cells it was 16.6 ± 0.83 µM. Besides, the “highest inhibition of MDA-468 cells” value in the data set with MDA-MB-468 cells (highest concentration, 72 h) came out at 56.56%. The “binding stoichiometry Fe^2+ (ions bound)” value in data set [1] is reported as “one”. In addition, the “binding stoichiometry Cu^2+” value in data set [2] is reported as 2. The lipophilicity (logP) at 30 min in the data set “physchem” amounted to 2.47.

Regarding `O=c1c(O)c(-c2ccc(O)c(O)c2)oc2c(CN3CCc4ccccc4C3)c(O)cc(O)c12` [Compound 2a], the “Viability of HeLa cells” value in the data set with HeLa cells (48 h) was 43% and 37%; with HeLa cells (72 h) it was 35% and 29%. The values for the IC50 in the data set on HeLa cells, in the data set with MDA-MB-468 cells and in the data set with MRC-5 cells were 53.5 ± 2.67 µM, more than 200 µM and 55.7 ± 2.78 µM, respectively. Further, the “binding stoichiometry Fe^2+ (ions bound)” value in data set [1] is listed as “one”. The “binding stoichiometry Cu^2+” value in data set [2] worked out at 2. Further, the lipophilicity (logP) at 30 min in the data set “physchem” was 3.07.

Broadly, the IC50 is the concentration that gives 50% inhibition. By logP is commonly meant a log measure of how a compound divides between an organic and an aqueous phase.

The values above are taken from article PMC12068008 (International Journal of Molecular Sciences, 2024).
